Source: ChEMBL document CHEMBL1130094, “Structure-activity relationships for a novel series of pyrido[2,3-d]pyrimidine tyrosine kinase inhibitors” (J Med Chem, 1997)

Key:
[1] = biological target: T1, Epidermal growth factor receptor (Homo sapiens, UniProt P00533); experiment: Inhibition of Epidermal growth factor receptor (EGFr) tyrosine kinase
[2] = biological target: T2, Fibroblast growth factor receptor (Homo sapiens, UniProt P22607+P11362+P22455+P21802); experiment: Inhibition of Fibroblast growth factor receptor (FGFr) tyrosine kinase; format: protein assay
Insulin receptor = Insulin receptor (Homo sapiens, UniProt P06213); experiment: Inhibition of insulin receptor (InsR) tyrosine kinase
Insulin receptor, sequence (P06213 28-758 limits assumed): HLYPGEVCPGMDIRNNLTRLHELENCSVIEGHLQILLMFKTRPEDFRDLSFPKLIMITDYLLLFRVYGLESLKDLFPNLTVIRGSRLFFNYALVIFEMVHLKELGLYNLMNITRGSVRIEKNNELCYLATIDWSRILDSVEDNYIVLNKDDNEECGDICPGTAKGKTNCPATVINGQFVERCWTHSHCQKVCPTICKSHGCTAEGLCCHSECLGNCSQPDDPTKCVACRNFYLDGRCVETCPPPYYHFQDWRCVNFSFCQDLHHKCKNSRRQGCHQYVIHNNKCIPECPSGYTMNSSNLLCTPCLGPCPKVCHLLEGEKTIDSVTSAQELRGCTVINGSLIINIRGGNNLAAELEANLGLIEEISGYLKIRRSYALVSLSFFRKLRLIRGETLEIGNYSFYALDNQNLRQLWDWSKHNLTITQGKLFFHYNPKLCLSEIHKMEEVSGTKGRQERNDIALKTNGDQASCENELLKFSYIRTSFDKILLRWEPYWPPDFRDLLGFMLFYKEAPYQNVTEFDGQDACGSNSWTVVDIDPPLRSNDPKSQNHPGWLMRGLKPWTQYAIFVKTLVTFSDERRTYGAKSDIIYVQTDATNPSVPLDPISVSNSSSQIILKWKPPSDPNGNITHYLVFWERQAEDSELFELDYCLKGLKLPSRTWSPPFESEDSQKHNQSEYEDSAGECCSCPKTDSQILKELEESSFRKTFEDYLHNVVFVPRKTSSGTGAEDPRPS
Insulin receptor, sequence (P06213 763-1382 limits assumed): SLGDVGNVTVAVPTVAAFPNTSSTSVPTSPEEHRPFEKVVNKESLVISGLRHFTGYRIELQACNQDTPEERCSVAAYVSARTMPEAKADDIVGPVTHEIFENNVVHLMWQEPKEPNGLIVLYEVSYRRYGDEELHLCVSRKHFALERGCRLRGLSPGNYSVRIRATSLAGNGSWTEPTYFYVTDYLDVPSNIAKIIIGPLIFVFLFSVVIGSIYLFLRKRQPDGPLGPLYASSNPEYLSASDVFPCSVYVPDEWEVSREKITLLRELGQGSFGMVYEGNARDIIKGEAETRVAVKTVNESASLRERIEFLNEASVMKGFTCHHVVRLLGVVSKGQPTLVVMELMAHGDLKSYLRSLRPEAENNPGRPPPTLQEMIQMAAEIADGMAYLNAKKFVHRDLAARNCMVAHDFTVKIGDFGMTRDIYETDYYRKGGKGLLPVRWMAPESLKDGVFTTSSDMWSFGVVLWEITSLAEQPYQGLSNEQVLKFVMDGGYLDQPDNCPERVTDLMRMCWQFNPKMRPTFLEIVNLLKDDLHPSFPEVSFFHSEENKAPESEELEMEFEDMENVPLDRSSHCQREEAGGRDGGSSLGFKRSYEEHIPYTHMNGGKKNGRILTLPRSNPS

[3] = biological target: T3, Platelet-derived growth factor receptor (PDGFr) (Rattus norvegicus, UniProt P20786+Q05030); experiment: Inhibition of platelet derived growth factor (PDGF) stimulated PDGF-receptor autophosphorylation in rat aortic vascular smooth muscle cells (RAVSMCs)
[4] = biological target: T3, Platelet-derived growth factor receptor (PDGFr); experiment: Inhibition of Platelet-derived growth factor receptor (PDGFr) tyrosine kinase in rat aortic vascular smooth muscle cells (RAVSMCs).
[5] = Inhibition of vascular smooth muscle cell (VSMC) proliferation at day 8; format: functional; details: Rattus norvegicus, 192 h
[6] = biological target: Proto-oncogene tyrosine-protein kinase Src (Homo sapiens, UniProt P12931); experiment: Inhibition of C-src tyrosine kinase
Proto-oncogene tyrosine-protein kinase Src, sequence (P12931 2-536 limits assumed): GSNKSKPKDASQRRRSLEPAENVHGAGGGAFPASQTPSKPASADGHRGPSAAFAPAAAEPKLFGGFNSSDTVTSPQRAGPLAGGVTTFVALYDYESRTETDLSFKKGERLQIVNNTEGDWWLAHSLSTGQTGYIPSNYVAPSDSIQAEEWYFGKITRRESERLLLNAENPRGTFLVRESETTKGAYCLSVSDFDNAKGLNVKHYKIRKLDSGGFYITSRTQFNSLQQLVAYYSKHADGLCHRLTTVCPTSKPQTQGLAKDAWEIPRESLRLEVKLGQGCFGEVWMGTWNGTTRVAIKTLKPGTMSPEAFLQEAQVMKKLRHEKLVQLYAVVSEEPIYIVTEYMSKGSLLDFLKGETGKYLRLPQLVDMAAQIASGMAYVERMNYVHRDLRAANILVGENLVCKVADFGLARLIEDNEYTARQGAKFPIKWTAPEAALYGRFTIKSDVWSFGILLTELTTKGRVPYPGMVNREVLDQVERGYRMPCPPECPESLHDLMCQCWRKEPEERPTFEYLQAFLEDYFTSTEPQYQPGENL

[7] = The half life in rat plasma after intravenous administration; format: ADME, organism-based
[8] = biological target: T1, Epidermal growth factor receptor; experiment: Inhibition of epidermal growth factor receptor (EGFr) tyrosine kinase
[9] = biological target: T2, Fibroblast growth factor receptor; experiment: Inhibition of fibroblast growth factor receptor (FGFr) tyrosine kinase; format: protein assay

T1 sequence (P00533 whole entry): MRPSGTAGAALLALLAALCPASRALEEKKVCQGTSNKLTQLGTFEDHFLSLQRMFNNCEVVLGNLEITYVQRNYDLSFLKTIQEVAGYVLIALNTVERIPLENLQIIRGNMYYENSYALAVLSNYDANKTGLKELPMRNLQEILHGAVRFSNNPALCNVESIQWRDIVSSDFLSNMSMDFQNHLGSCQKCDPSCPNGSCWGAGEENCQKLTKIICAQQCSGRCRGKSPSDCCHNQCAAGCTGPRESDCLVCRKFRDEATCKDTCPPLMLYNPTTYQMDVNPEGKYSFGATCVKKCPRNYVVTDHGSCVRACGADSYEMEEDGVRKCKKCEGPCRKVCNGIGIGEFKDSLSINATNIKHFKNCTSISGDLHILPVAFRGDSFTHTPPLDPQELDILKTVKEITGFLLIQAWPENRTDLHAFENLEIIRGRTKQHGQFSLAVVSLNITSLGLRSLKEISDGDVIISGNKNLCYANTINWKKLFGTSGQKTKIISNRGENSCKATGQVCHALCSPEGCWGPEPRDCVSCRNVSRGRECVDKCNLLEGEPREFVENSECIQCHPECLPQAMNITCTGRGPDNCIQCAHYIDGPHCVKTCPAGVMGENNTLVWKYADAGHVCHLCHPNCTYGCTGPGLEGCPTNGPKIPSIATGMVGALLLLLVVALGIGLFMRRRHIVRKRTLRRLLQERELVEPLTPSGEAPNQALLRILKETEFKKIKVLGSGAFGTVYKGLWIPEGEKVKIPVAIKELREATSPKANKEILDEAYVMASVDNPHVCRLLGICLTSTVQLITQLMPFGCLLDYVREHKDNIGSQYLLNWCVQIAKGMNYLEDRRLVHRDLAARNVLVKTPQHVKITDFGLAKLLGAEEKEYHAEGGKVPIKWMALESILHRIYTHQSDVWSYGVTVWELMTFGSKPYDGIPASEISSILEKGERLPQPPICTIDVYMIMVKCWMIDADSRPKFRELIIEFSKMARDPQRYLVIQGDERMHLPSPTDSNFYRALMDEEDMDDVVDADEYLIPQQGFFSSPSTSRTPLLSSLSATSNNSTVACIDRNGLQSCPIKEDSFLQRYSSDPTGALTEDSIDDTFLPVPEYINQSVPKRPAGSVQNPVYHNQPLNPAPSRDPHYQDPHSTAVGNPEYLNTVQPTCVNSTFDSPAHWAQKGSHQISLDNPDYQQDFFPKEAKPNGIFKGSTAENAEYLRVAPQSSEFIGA

SMILES | IC50 [1] [nM] | IC50 [2] [nM] | IC50 (Insulin receptor) [nM] | IC50 [3] [nM] | IC50 [4] [nM] | IC50 [6] [nM] | half-life [7] [h] | IC50 [8] [nM] | IC50 [9] [nM] | IC50 [5] [nM]
COc1cc(OC)cc(-c2cc3cnc(N)nc3nc2NC(=O)NC(C)(C)C)c1 | – | 60 | – | – | – | – | – | – | – | –
CCNC(=O)Nc1nc2nc(NCCCCN(CC)CC)ncc2cc1-c1c(Cl)cccc1Cl | – | – | – | 250 | 190 | – | – | – | – | –
CCNC(=O)Nc1nc2nc(N)ncc2cc1-c1c(Cl)cccc1Cl | 1360 | 130 | > 50000 | 3730 | 1300 | – | – | – | – | –
Cc1cccc(C)c1-c1cc2cnc(N)nc2nc1NC(=O)NC(C)(C)C | 610 | 400 | > 50000 | – | – | – | – | – | – | –
CC(C)(C)NC(=O)Nc1nc2nc(N)ncc2cc1-c1c(Cl)cccc1Cl | – | 130 | > 50000 | 630 | 1110 | 220 | – | – | – | –
CC(C)(C)NC(=O)Nc1nc2nc(N)ncc2cc1-c1ccccc1 | – | – | > 50000 | – | 4670 | > 50000 | – | 5530 | 3710 | –

The next lines start with results.

IC50 [1] [nM] | IC50 [2] [nM] | IC50 (Insulin receptor) [nM] | IC50 [3] [nM] | IC50 [4] [nM] | IC50 [6] [nM] | half-life [7] [h] | IC50 [8] [nM] | IC50 [9] [nM] | SMILES | IC50 [5] [nM]
6200 | 82 | > 50000 | 1800 | 660 | – | – | – | – | CCN(CC)CCCNc1ncc2cc(-c3c(Cl)cccc3Cl)c(NC(=O)NC(C)(C)C)nc2n1 | –
– | – | > 50000 | 450 | 310 | 44 | – | – | – | CCN(CC)CCCCNc1ncc2cc(-c3c(Cl)cccc3Cl)c(NC(=O)NC(C)(C)C)nc2n1 | 300
– | – | > 50000 | > 50000 | > 50000 | > 50000 | – | – | – | Cc1cc(C)c(C)c(-c2cc3cnc(N)nc3nc2NC(=O)NC(C)(C)C)c1C | –
– | – | > 50000 | – | – | – | 2.69 | – | – | CN1CCN(CCCNc2ncc3cc(-c4c(Cl)cccc4Cl)c(NC(=O)NC(C)(C)C)nc3n2)CC1 | –
7000 | 140 | > 50000 | 4300 | > 50000 | 2200 | – | – | – | Cc1cc(C)c(C)c(-c2cc3cnc(NCCCN4CCN(C)CC4)nc3nc2NC(=O)NC(C)(C)C)c1C | –
